The molecules below were run against T1, human OX2 receptor (Homo sapiens, UniProt O43614) (assay: Measurement of orexin type 2 receptor agonist activity (calcium fluorescence, Fluo-4 AM, FDSS)). Details: compound at 3 μM; CHO cells forcibly expressing human OX2 receptor; DMSO = 0%, 10 nM orexin A (human) = 100%.
T1 construct: expressed in transfected cells
T1 sequence (O43614 1-444): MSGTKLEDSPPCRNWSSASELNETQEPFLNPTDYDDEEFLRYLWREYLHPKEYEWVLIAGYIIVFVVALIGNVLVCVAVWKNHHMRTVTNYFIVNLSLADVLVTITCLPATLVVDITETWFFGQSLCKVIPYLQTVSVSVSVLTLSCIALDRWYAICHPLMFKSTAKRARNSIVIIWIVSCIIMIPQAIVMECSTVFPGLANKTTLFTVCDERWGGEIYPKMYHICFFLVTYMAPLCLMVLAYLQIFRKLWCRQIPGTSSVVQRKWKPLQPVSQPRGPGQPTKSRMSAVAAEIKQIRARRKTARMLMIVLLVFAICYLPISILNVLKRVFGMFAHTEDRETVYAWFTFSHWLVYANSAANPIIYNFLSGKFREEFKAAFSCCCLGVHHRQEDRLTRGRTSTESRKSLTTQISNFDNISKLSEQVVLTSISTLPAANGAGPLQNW
Assay type: cell-based
How it was run: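 Agonist response is expressed as % of the fluorescence change given by 10 nM human orexin A, with DMSO as 0%, read over 1 min 40 s on FDSS after compound addition. Cells: stable human OX2 (1-444) CHO-K1 clones, dye-loaded with Fluo-4 AM plus probenecid in HEPES-buffered HBSS with 0.1% BSA.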

SMILES | OX2R agonist activity (3 μM, %) [%]
Cc1cnc([C@@H]2CC(N3C[C@@H](NS(=O)(=O)C(F)F)C(F)(F)C3)=NO2)c(-c2c(F)cccc2F)c1 [Example 31, N-[(3R)-1-{(5S)-5-[3-(2,6-difluorophenyl)-5-methylpyridin-2-yl]-4,5-dihydro-1,2-oxazol-3-yl}-4,4-difluoropyrrolidin-3-yl]-1,1-difluoromethanesulfonamide] | 104
Cc1cc(F)c(C2CC(N3C[C@@H](NS(C)(=O)=O)C(F)(F)C3)=NO2)c(-c2c(F)cccc2F)c1 (stereo partly drawn) [Example 146, N-{(3R)-4,4-difluoro-1-[5-(2′,3,6′-trifluoro-5-methyl[1,1′-biphenyl]-2-yl)-4,5-dihydro-1,2-oxazol-3-yl]pyrrolidin-3-yl}methanesulfonamide] | 102
Cc1cnc(C2(CF)CC(N3C[C@H](F)[C@H](NS(C)(=O)=O)C3)=NO2)c(-c2c(F)cc(F)cc2F)c1 (stereo partly drawn) [Example 110, N-[(3R,4S)-4-fluoro-1-{5-(fluoromethyl)-5-[5-methyl-3-(2,4,6-trifluorophenyl)pyridin-2-yl]-4,5-dihydro-1,2-oxazol-3-yl}pyrrolidin-3-yl]methanesulfonamide] | 100
CCS(=O)(=O)N[C@@H]1CN(C2=NO[C@H](c3ncc(C)cc3-c3c(F)cc(F)cc3F)C2)CC1(F)F [Example 47, N-[(3R)-4,4-difluoro-1-{(5S)-5-[5-methyl-3-(2,4,6-trifluorophenyl)pyridin-2-yl]-4,5-dihydro-1,2-oxazol-3-yl}pyrrolidin-3-yl]ethanesulfonamide] | 93
CS(=O)(=O)N[C@@H]1CN(C2=NOC(c3ccccc3-c3c(F)cccc3F)C2)CC1(F)F (stereo partly drawn) [Example 4, N-{(3R)-1-[5-(2′,6′-difluoro[1,1′-biphenyl]-2-yl)-4,5-dihydro-1,2-oxazol-3-yl]-4,4-difluoropyrrolidin-3-yl}methanesulfonamide] | 104
CS(=O)(=O)N[C@@H]1CN(C2=NOC(c3c(F)cc(F)cc3-c3ncc(F)cc3F)C2)C[C@@H]1F (stereo partly drawn) [Example 139, N-[(3R,4S)-1-{5-[2-(3,5-difluoropyridin-2-yl)-4,6-difluorophenyl]-4,5-dihydro-1,2-oxazol-3-yl}-4-fluoropyrrolidin-3-yl]methanesulfonamide] | 94
Cc1cnc([C@@H]2CC(N3CC[C@H](NS(=O)(=O)CF)C3)=NO2)c(-c2c(F)cc(F)cc2F)c1 [Example 56, 1-fluoro-N-[(3S)-1-{(5S)-5-[5-methyl-3-(2,4,6-trifluorophenyl)pyridin-2-yl]-4,5-dihydro-1,2-oxazol-3-yl}pyrrolidin-3-yl]methanesulfonamide] | 92
Cc1ccc(C2CC(N3C[C@H](F)[C@H](NS(=O)(=O)N(C)C)C3)=NO2)c(-c2ncc(F)cc2F)c1 (stereo partly drawn) [Example 125, N′-[(3R,4S)-1-{5-[2-(3,5-difluoropyridin-2-yl)-4-methylphenyl]-4,5-dihydro-1,2-oxazol-3-yl}-4-fluoropyrrolidin-3-yl]-N,N-dimethylsulfuric diamide] | 104
CS(=O)(=O)N[C@@H]1CN(C2=NOC(c3ccc(F)cc3-c3c(F)cccc3F)C2)CC1(F)F (stereo partly drawn) [Example 111, N-{(3R)-4,4-difluoro-1-[5-(2′,5,6′-trifluoro[1,1′-biphenyl]-2-yl)-4,5-dihydro-1,2-oxazol-3-yl]pyrrolidin-3-yl}methanesulfonamide] | 102
CS(=O)(=O)N[C@@H]1CN(C2=NOC(CO)(c3ncc(Cl)cc3-c3c(F)cccc3F)C2)CC1(F)F (stereo partly drawn) [Example 142, N-[(3R)-1-{5-[5-chloro-3-(2,6-difluorophenyl)pyridin-2-yl]-5-(hydroxymethyl)-4,5-dihydro-1,2-oxazol-3-yl}-4,4-difluoropyrrolidin-3-yl]methanesulfonamide] | 102
CS(=O)(=O)N[C@@H]1CN(C2=NOC(c3ncc(Br)cc3-c3c(F)cc(F)cc3F)C2)CC1(F)F (stereo partly drawn) [Example 40, N-[(3R)-1-{5-[5-bromo-3-(2,4,6-trifluorophenyl)pyridin-2-yl]-4,5-dihydro-1,2-oxazol-3-yl}-4,4-difluoropyrrolidin-3-yl]methanesulfonamide] | 103
CS(=O)(=O)N[C@@H]1CN(C2=NOC(CF)(c3ncc(F)cc3-c3c(F)cccc3F)C2)C[C@@H]1F (stereo partly drawn) [Example 116, N-[(3R,4S)-1-{5-[3-(2,6-difluorophenyl)-5-fluoropyridin-2-yl]-5-(fluoromethyl)-4,5-dihydro-1,2-oxazol-3-yl}-4-fluoropyrrolidin-3-yl]methanesulfonamide] | 100
CCS(=O)(=O)N[C@@H]1CN(C2=NOC(c3ncc(C)cc3-c3c(F)cc(F)cc3F)(C(F)F)C2)CC1(F)F (stereo partly drawn) [Example 13, N-[(3R)-1-{5-(difluoromethyl)-5-[5-methyl-3-(2,4,6-trifluorophenyl)pyridin-2-yl]-4,5-dihydro-1,2-oxazol-3-yl}-4,4-difluoropyrrolidin-3-yl]ethanesulfonamide] | 107
Cc1cnc([C@@H]2CC(N3C[C@H](F)[C@H](NS(=O)(=O)C4CC4)C3)=NO2)c(-c2c(F)cc(F)cc2F)c1 [Example 97, N-[(3R,4S)-4-fluoro-1-{(5S)-5-[5-methyl-3-(2,4,6-trifluorophenyl)pyridin-2-yl]-4,5-dihydro-1,2-oxazol-3-yl}pyrrolidin-3-yl]cyclopropanesulfonamide] | 103

Continued, values first:

OX2R agonist activity (3 μM, %) [%] | SMILES
111 | Cc1cc(F)c(C2CC(N3C[C@H](F)[C@H](NS(C)(=O)=O)C3)=NO2)c(-c2ncc(F)cc2F)c1 (stereo partly drawn) [Example 178, N-[(3R,4S)-1-{5-[2-(3,5-difluoropyridin-2-yl)-6-fluoro-4-methylphenyl]-4,5-dihydro-1,2-oxazol-3-yl}-4-fluoropyrrolidin-3-yl]methanesulfonamide]
105 | Cc1cnc([C@@H]2CC(N3C[C@H](F)[C@H](NS(=O)(=O)C4(F)CC4)C3)=NO2)c(-c2c(F)cccc2F)c1 (single isomer, unassigned) [Example 117, optical isomer of N-[(3R,4S)-1-{(5S)-5-[3-(2,6-difluorophenyl)-5-methylpyridin-2-yl]-4,5-dihydro-1,2-oxazol-3-yl}-4-fluoropyrrolidin-3-yl]-1-fluorocyclopropane-1-sulfonamide or N-[(3S,4R)-1-{(5S)-5-[3-(2,6-difluorophenyl)-5-methylpyridin-2-yl]-4,5-dihydro-1,2-oxazol-3-yl}-4-fluoropyrrolidin-3-yl]-1-fluorocyclopropane-1-sulfonamide]
98 | CS(=O)(=O)N[C@@H]1CN(C2=NOC(c3ncc(F)cc3-c3c(F)cc(F)cc3F)C2)C[C@@H]1F (stereo partly drawn) [Example 90, N-[(3R,4S)-4-fluoro-1-{5-[5-fluoro-3-(2,4,6-trifluorophenyl)pyridin-2-yl]-4,5-dihydro-1,2-oxazol-3-yl}pyrrolidin-3-yl]methanesulfonamide]
98 | COCS(=O)(=O)N[C@@H]1CN(C2=NO[C@H](c3ncc(C)cc3-c3c(F)cc(F)cc3F)C2)C[C@@H]1F [Example 91, N-[(3R,4S)-4-fluoro-1-{(5S)-5-[5-methyl-3-(2,4,6-trifluorophenyl)pyridin-2-yl]-4,5-dihydro-1,2-oxazol-3-yl}pyrrolidin-3-yl]-1-methoxymethanesulfonamide]
101 | Cc1cnc([C@@H]2CC(N3CC[C@H](NS(C)(=O)=O)C3)=NO2)c(-c2c(F)cc(F)cc2F)c1 [Example 45, N-[(3S)-1-{(5S)-5-[5-methyl-3-(2,4,6-trifluorophenyl)pyridin-2-yl]-4,5-dihydro-1,2-oxazol-3-yl}pyrrolidin-3-yl]methanesulfonamide]
13 | CCS(=O)(=O)N[C@H]1CCN(C2=NOC(c3cc(C(F)(F)F)nn3-c3c(F)cccc3F)C2)C1 (stereo partly drawn) [Example 9, N-[(3S)-1-{5-[1-(2,6-difluorophenyl)-3-(trifluoromethyl)-1H-pyrazol-5-yl]-4,5-dihydro-1,2-oxazol-3-yl}pyrrolidin-3-yl]ethanesulfonamide]
93 | CS(=O)(=O)N[C@@H]1CN(C2=NOC(c3ncc(Br)cc3-c3c(F)cccc3F)C2)CC1(F)F (stereo partly drawn) [Example 52, N-[(3R)-1-{5-[5-bromo-3-(2,6-difluorophenyl)pyridin-2-yl]-4,5-dihydro-1,2-oxazol-3-yl}-4,4-difluoropyrrolidin-3-yl]methanesulfonamide]
89 | CS(=O)(=O)N[C@@H]1CN(C2=NOC(c3ccc(F)c(F)c3-c3c(F)cccc3F)C2)CC1(F)F (stereo partly drawn) [Example 140, N-{(3R)-4,4-difluoro-1-[5-(2′,5,6,6′-tetrafluoro[1,1′-biphenyl]-2-yl)-4,5-dihydro-1,2-oxazol-3-yl]pyrrolidin-3-yl}methanesulfonamide]
95 | CS(=O)(=O)N[C@@H]1CN(C2=NOC(c3ncc(Cl)cc3-c3c(F)cccc3F)C2)CC1(F)F (stereo partly drawn) [Example 49, N-[(3R)-1-{5-[5-chloro-3-(2,6-difluorophenyl)pyridin-2-yl]-4,5-dihydro-1,2-oxazol-3-yl}-4,4-difluoropyrrolidin-3-yl]methanesulfonamide]
